# Source: the supplement of paper PMC10307832
# Experiments:
# Assay in all cases: relative viability (nuclei count vs DMSO), 5 days (fraction); higher = more cells survive
# [1] = compound: CCN1C(=O)C2=CC(=C(N=C2N(C1=O)C3CC3)N)C(=O)N + CC(=O)c1c(C)c2cnc(Nc3ccc(N4CCNCC4)cn3)nc2n(C2CCCC2)c1=O [Palbociclib] (partner 0.5 µM)
# Procedure, shortened: (§1)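 For relative viability, nuclei counts in treated wells were divided by those in vehicle wells. Lung cancer cell lines had been pin-tool dosed in 1536-well plates the day after seeding and cultured for 5 days, then fixed and stained in one step (final 0.05% Triton X-100, 1% formaldehyde, 1 ug/ml Hoechst) and imaged at 4×. Doses were one drug alone or a fixed anchor-drug dose plus five library-drug doses (not always all listed) in √10 steps, and values are duplicate-plate medians.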
# [2] = compound: CCN1C(=O)C2=CC(=C(N=C2N(C1=O)C3CC3)N)C(=O)N + CC(C)C[C@H](NC(=O)[C@H](Cc1ccccc1)NC(=O)c1cnccn1)B(O)O [Bortezomib] (partner 0.002 µM)
# Procedure, shortened: as §1
# [3] = compound: CCN1C(=O)C2=CC(=C(N=C2N(C1=O)C3CC3)N)C(=O)N + COc1cc2c(Oc3ccc(NC(=O)C4(C(=O)Nc5ccc(F)cc5)CC4)cc3F)ccnc2cc1OCCCN1CCOCC1 [Foretinib] (partner 0.25 µM)
# Procedure, shortened: as §1
# [4] = compound: CCN1C(=O)C2=CC(=C(N=C2N(C1=O)C3CC3)N)C(=O)N + Nc1nc2[nH]cc(CCc3ccc(C(=O)N[C@@H](CCC(=O)O)C(=O)O)cc3)c2c(=O)[nH]1 [Pemetrexed] (partner 0.2 µM)
# Procedure, shortened: as §1
# [5] = compound: CCN1C(=O)C2=CC(=C(N=C2N(C1=O)C3CC3)N)C(=O)N + Nc1ncn([C@H]2C[C@H](O)[C@@H](CO)O2)c(=O)n1 [Decitabine] (partner 2 µM)
# Procedure, shortened: as §1
Cell Line,relative viability ([1]; first compound 0.253 µM),relative viability ([1]; first compound 0.8 µM),relative viability ([1]; first compound 2.53 µM),relative viability ([1]; first compound 8 µM),relative viability ([2]; first compound 0.253 µM),relative viability ([2]; first compound 0.8 µM),relative viability ([2]; first compound 2.53 µM),relative viability ([2]; first compound 8 µM),relative viability ([3]; first compound 0.253 µM),relative viability ([3]; first compound 0.8 µM),relative viability ([3]; first compound 2.53 µM),relative viability ([3]; first compound 8 µM),relative viability ([4]; first compound 0.253 µM),relative viability ([4]; first compound 0.8 µM),relative viability ([4]; first compound 2.53 µM),relative viability ([4]; first compound 8 µM),relative viability ([5]; first compound 0.253 µM),relative viability ([5]; first compound 0.8 µM),relative viability ([5]; first compound 2.53 µM),relative viability ([5]; first compound 8 µM)
201T,0.392,0.348,0.38,0.369,1.1,1.07,1.09,1.05,1.01,1.07,1.15,1.2,0.328,0.309,0.34,0.313,0.866,0.81,0.814,0.844
A549,–,–,–,–,–,–,–,–,0.898,1.06,0.809,1.01,–,–,–,–,0.215,0.341,0.218,0.11
A-427,0.497,0.522,0.486,0.535,0.938,0.963,0.965,0.956,1.13,1.13,1.08,1.21,0.952,0.927,1.08,0.927,0.552,0.537,0.521,0.563
ABC-1,0.819,–,0.709,0.799,0.298,0.325,0.312,0.266,1.19,0.873,0.908,1.05,–,–,–,–,0.996,–,1.17,1.05
BEN,0.448,0.478,0.411,0.456,0.951,0.68,1.1,0.697,1.13,0.618,0.69,0.558,0.896,0.842,0.929,0.699,0.814,0.675,0.734,0.657
CAL-12T,0.452,0.448,0.475,0.418,1.11,–,1.09,1.08,1.09,1.18,1.09,1.01,1.02,1.31,1.06,1.15,–,–,–,–
COR-L23,0.355,0.334,0.322,0.266,1,0.944,1.12,0.95,0.91,1.03,1.08,0.947,0.188,0.202,0.191,0.213,0.442,0.467,0.428,0.375
COR-L 105,0.377,0.431,0.397,0.366,0.866,0.709,0.856,0.738,0.748,1.01,0.864,1.01,0.941,1.01,0.991,1.16,0.712,0.657,0.597,0.785
ChaGo-K-1,0.898,0.97,0.897,0.99,1.12,0.87,1.1,1.1,0.873,0.97,0.895,0.948,0.272,0.264,0.263,0.246,0.529,0.555,0.489,0.449
EKVX,0.63,0.471,0.401,0.348,1.18,1.14,1.07,0.901,0.785,0.743,0.875,0.639,0.397,0.414,0.282,0.351,0.352,0.33,0.352,0.296
EMC-BAC-2,0.543,–,0.47,0.468,1.12,1.04,0.9,1.06,1.17,1,0.935,1.17,0.461,–,0.403,0.431,1.05,–,0.89,0.94
EPLC-272H,0.309,0.358,0.331,0.358,0.828,0.75,0.827,1,0.84,0.662,0.613,0.686,–,0.265,0.301,0.368,0.362,0.376,0.399,0.379
H3255,0.321,0.335,0.327,0.279,0.866,0.565,0.934,0.706,0.856,0.802,0.932,1.01,0.588,0.555,0.536,0.558,0.582,0.582,0.61,0.604
HARA,0.265,0.32,0.195,0.229,1.18,1.12,1.11,1.15,0.884,0.989,0.857,0.926,0.223,0.232,0.246,0.216,0.473,0.587,0.402,0.721
